Laboratory results: ChEMBL document CHEMBL5725356, “Anti-fibrotic pyridinones” (2017)

Assay: ET-1 Assay: Fibroblasts (primary human lung and dermal, HFL-1, 3T3 etc) are seeded in 96-well plates at ~15000 cells/well and serum starved for 0-48 hours. After media exchange, compounds serially diluted in DMSO are added to the cells. After a brief incubation of ~30 min, stimulants (TGFb, serum, LPA etc) are added followed by further incubation for 16-48 hours. Media is then harvested and stored frozen in plate format for later endothelin-1 (ET-1) determination by ELISA. Toxicity measurements are made using the ATPlite kit (Perkin-Elmer). ET-1 is quantified using an ELISA kit (R&D Systems). The amount of ET-1 produced in the assay wells are back-calculated using the ELISA standard. The ability of a compound to inhibit ET-1 production is typically analyzed by fitting dose-response curves to a 4-parameter logistic function to obtain an EC50 value.
Conditions: HFL1

| SMILES | EC50 |
| --- | --- |
| Cc1n[nH]c(C)c1-c1ccc(=O)n(-c2ccncc2)c1 | > 200 µM |
| COc1ccc(-n2cc(C)ccc2=S)cc1 | > 200 µM |
| Cc1cc(=O)n(-c2ccc(Cl)cc2)cc1-c1cn[nH]c1 | > 200 µM |
| Cc1cc(=O)n(-c2ccc(OC(F)(F)F)cc2)cc1-c1ccc2c(c1)OCC(=O)N2 | in the range around 125 µM |
| CCOc1ccc(-n2cc(-c3cnn(C)c3)c(Oc3ccccc3)cc2=O)c(C)c1 | < 50 µM |
| Cn1cc(-c2cnc(=O)n(-c3ccccc3)c2)cn1 | > 200 µM |
| Cn1cc(-c2cn(-c3ccc(OC(F)(F)F)cc3)c(=O)cc2NCc2ccc(Cl)cc2Cl)cn1 | < 50 µM |
| Cc1cc(=O)n(-c2ccc(Cl)cc2)cc1-c1ccc2scnc2c1 | in the range around 125 µM |
| O=c1ccc(-c2cn[nH]c2)cn1-c1ccc(F)cc1 | in the range around 125 µM |
| Cc1cc(=O)n(-c2ccc(OC(F)(F)F)cc2)cc1-c1ccc2c(c1)OCC(=O)N2C | < 50 µM |
| Cn1cc(-c2ccc(=O)n(-c3ccccc3)n2)cn1 | > 200 µM |
| Cc1ccc(=S)n(-c2ccc(OC(C)C)cc2)c1 | > 200 µM |
| Cc1cc(=O)n(-c2ccc(OC(F)(F)F)cc2)cc1C(F)(F)F | > 200 µM |
| Cc1cc(=O)n(-c2ccc(OC(F)(F)F)cc2)cc1-c1cccc2c1OCC(=O)N2 | > 200 µM |
| Cc1cc(=O)n(-c2ccc(Cl)cc2)cc1-c1ccc2ocnc2c1 | > 200 µM |
| CCOc1ccc(-n2cc(-c3cccc(Cl)c3)ccc2=O)c(C)c1 | < 50 µM |
| Cc1n[nH]c(C)c1-c1ccc(=O)n(-c2ccc(OC(C)C)cc2)c1 | in the range around 125 µM |
| O=c1ccc(-c2cccc(Cl)c2)cn1-c1ccccc1F | in the range around 125 µM |
| CCOc1ccc(-n2cc(-c3ccc4ocnc4c3)c(C)cc2=O)c(C)c1 | in the range around 125 µM |
| O=c1ccc(-c2cnn(Cc3ccccc3)c2)cn1-c1ccccc1 | in the range around 125 µM |
| Cc1cc(=O)n(-c2ccccc2)cc1C | > 200 µM |
| Cc1cc(=O)n(-c2ccc(Cl)cc2)cc1-c1ccnnc1 | > 200 µM |

| SMILES | EC50 |
| --- | --- |
| O=c1ccc(-c2cn[nH]c2)cn1-c1cccc(C(F)(F)F)c1 | > 200 µM |
| Cn1cc(-c2cn(-c3ccc(OC(F)(F)F)cc3)c(=O)cc2Oc2ccc(Cl)cc2)cn1 | > 200 µM |
| Cn1cc(-c2cn(-c3ccc(Cl)cc3)c(=O)c3nccnc23)cn1 | > 200 µM |
| O=c1ncc(-c2ccc(F)cc2)cn1-c1ccc(OC(F)(F)F)cc1 | > 200 µM |
| O=c1c2c(ccn2Cc2ccccc2)c(-c2ccc(F)cc2)cn1-c1ccc(OC(F)(F)F)cc1 | > 200 µM |
| Cc1n[nH]c(C)c1-c1ccc(=O)n(-c2cccc(C(F)(F)F)c2)c1 | in the range around 125 µM |
| N#Cc1cc(=O)n(-c2ccc(OC(F)(F)F)cc2)cc1-c1ccc(F)cc1 | > 200 µM |
| Cc1cc(=O)n(-c2ccc(OC(F)(F)F)cc2)cc1-c1ccc2[nH]c(=O)oc2c1 | > 200 µM |
| COc1ccc(-n2cc(-c3cn[nH]c3)ccc2=O)cc1 | > 200 µM |
| COc1cccc(-n2cc(-c3cn[nH]c3)ccc2=O)c1 | > 200 µM |
| Cn1cc(-c2cn(-c3ccc(C#N)cc3)c(=O)c3cccnc23)cn1 | in the range around 125 µM |
| Cc1cc(=O)n(-c2ccc(OC(F)(F)F)cc2C)cc1-c1cnn(C)c1 | > 200 µM |
| Cc1n[nH]c(C)c1-c1ccc(=O)n(-c2cccc(F)c2)c1 | > 200 µM |
| Cn1cc(-c2cn(-c3ccc(OC(F)(F)F)cc3)c(=O)cc2NCc2cnccn2)cn1 | in the range around 125 µM |
| CCOc1ccc(-n2cc(-c3cn[nH]c3)ccc2=O)c(C)c1 | < 50 µM |
| Cc1cc(=O)n(-c2ccc(OC(F)(F)F)cc2)cc1-c1cccc2c1NC(=O)CO2 | > 200 µM |
| Cn1cc(-c2cn(-c3ccc(OC(F)(F)F)cc3)c(=O)cc2Oc2ccccc2Cl)cn1 | < 50 µM |
| Cn1cc(-c2cn(-c3ccc(OC(F)(F)F)cc3)c(=O)cc2NCc2ccc(F)cc2F)cn1 | < 50 µM |
| O=c1ccc(-c2ccc(F)cc2)nn1-c1ccc(OC(F)(F)F)cc1 | > 200 µM |
| O=c1ncc(-c2ccc(F)cc2)cn1-c1ccccc1 | in the range around 125 µM |
| Cn1cc(-c2ccc(=O)n(-c3ccc(OC(F)(F)F)cc3)n2)cn1 | > 200 µM |
| Cc1ccc(=S)n(-c2ccc(F)cc2)c1 | > 200 µM |

| SMILES | EC50 |
| --- | --- |
| Cc1cc(=O)n(-c2ccc(OC(F)(F)F)cc2)cc1-c1cccc2c1N(C)C(=O)CO2 | > 200 µM |
| O=c1ccc(-c2cccc(Cl)c2)cn1-c1ccncc1 | > 200 µM |
| CCOC(=O)Nc1cccc(-n2cc(-c3ccc(F)cc3)c(C)cc2=O)c1 | < 50 µM |
| O=c1ccc(-c2cncnc2)cn1-c1ccccc1F | > 200 µM |
| O=c1ccc(-c2cccc(Cl)c2)cn1-c1cccc(F)c1 | < 50 µM |
| Cc1ccc(F)c(-c2ccccc2)c1 | > 200 µM |
| Cc1cc(-c2ccc(F)cc2)cn(-c2ccc(OC(F)(F)F)cc2)c1=O | in the range around 125 µM |
| Cc1cc(-c2cnn(C)c2)cn(-c2ccc(OC(F)(F)F)cc2)c1=O | in the range around 125 µM |
| CCn1c(=O)oc2cc(-c3cn(-c4ccc(OC(F)(F)F)cc4)c(=O)cc3C)ccc21 | < 50 µM |
| Cn1cc(-c2cn(-c3ccc(OC(F)(F)F)cc3)c(=O)c3c2ccn3C)cn1 | < 50 µM |
| Cc1n[nH]c(C)c1-c1ccc(=O)n(-c2ccc(OC(F)(F)F)cc2)c1 | in the range around 125 µM |
| Cn1cc(-c2cn(-c3ccc(OC(F)(F)F)cc3)c(=O)cc2NCc2ccc(C#N)cc2)cn1 | > 200 µM |
| CN1C(=O)COc2c(-c3cnn(C)c3)cn(-c3ccc(OC(F)(F)F)cc3)c(=O)c21 | > 200 µM |
| Cn1cc(-c2cn(-c3ccc(C#N)cc3)c(=O)c3nccnc23)cn1 | > 200 µM |
| COc1ccc(-n2cc(-c3ccc(S(N)(=O)=O)cc3)ccc2=O)cc1 | > 200 µM |
| Cn1cc(-c2cn(-c3ccc(OC(F)(F)F)cc3)c(=O)cc2Oc2ccccc2F)cn1 | > 200 µM |
| Cc1cc(-c2ccc(F)cc2)cn(-c2ccccc2)c1=O | < 50 µM |
| CC(C)n1cc(-c2ccc(=O)n(-c3ccccc3)c2)cn1 | > 200 µM |
| O=c1ccc(-c2cncnc2)cn1-c1cccc(F)c1 | > 200 µM |
| Cc1ccc(=O)n(-c2ccc(OC(F)(F)F)cc2)n1 | < 50 µM |
| O=c1ccc(-c2cccc(Cl)c2)cn1-c1ccccc1Cl | < 50 µM |
| Cc1cc(=O)n(-c2ccc(OC(F)(F)F)cc2)cc1-c1cccc2c1OC(F)(F)O2 | < 50 µM |

| SMILES | EC50 |
| --- | --- |
| Cc1n[nH]c(C)c1-c1ccc(=O)n(-c2ccc(F)cc2)c1 | > 200 µM |
| Cn1cc(-c2cn(-c3ccc(OC(F)(F)F)cc3)c(=O)cc2NCc2ccc(F)cc2)cn1 | < 50 µM |
| Cn1cc(-c2cnc(=O)n(-c3ccc(OC(F)(F)F)cc3)c2)cn1 | > 200 µM |
| COc1cccc(-n2cc(-c3cccc(Cl)c3)ccc2=O)c1 | < 50 µM |
| O=c1ccc(-c2cncnc2)cn1-c1ccc(F)cc1 | > 200 µM |
| NS(=O)(=O)c1ccc(-c2ccc(=O)n(-c3ccc(Cl)cc3)c2)cc1 | > 200 µM |
| O=c1ccc(-c2cn[nH]c2)cn1-c1cccc(F)c1 | > 200 µM |
| O=c1ccc(-c2cn[nH]c2)cn1-c1ccc(Cl)cc1 | > 200 µM |
| O=c1ccc(-c2cccc(Cl)c2)cn1-c1cccc(C(F)(F)F)c1 | < 50 µM |
| COc1cccc(-n2cc(-c3c(C)n[nH]c3C)ccc2=O)c1 | in the range around 125 µM |
| Cc1cc(=O)n(-c2ccc(OC(F)(F)F)cc2)cc1C | > 200 µM |
| Cc1cc(=O)n(-c2ccc(NC(N)=O)cc2)cc1-c1ccc(F)cc1 | in the range around 125 µM |
| COc1cccc(-n2cc(-c3ccc(S(N)(=O)=O)cc3)ccc2=O)c1 | > 200 µM |
| Cc1cc(=O)n(-c2cccc(NC(=O)N(C)C)c2)cc1-c1ccc(F)cc1 | < 50 µM |
| O=C1NC=CCN1c1ccccc1 | > 200 µM |
| Cn1cc(-c2cn(-c3ccc(OC(F)(F)F)cc3)c(=O)cc2Oc2ccc(F)cc2)cn1 | < 50 µM |
| O=c1ccc(-c2cn[nH]c2)cn1-c1ccc(OC(F)(F)F)cc1 | < 50 µM |
| Cn1cc(-c2cn(-c3ccc(OC(F)(F)F)cc3)c(=O)cc2Oc2cccc(Cl)c2)cn1 | < 50 µM |
| O=c1c2nccnc2c(-c2cn[nH]c2)cn1-c1ccc(OC(F)(F)F)cc1 | < 50 µM |
| Cn1cc(-c2cn(-c3ccc(OC(F)(F)F)cc3)c(=O)cc2Oc2cccc(F)c2)cn1 | < 50 µM |
| Cc1ccc(=S)n(-c2cccc(F)c2)c1 | > 200 µM |
| Cc1cc(-c2cnn(C)c2)cn(-c2ccccc2)c1=O | in the range around 125 µM |

| SMILES | EC50 |
| --- | --- |
| Cn1cc(-c2cn(-c3ccc(OC(F)(F)F)cc3)c(=O)cc2NCc2ccc(Cl)cc2)cn1 | in the range around 125 µM |
| NS(=O)(=O)c1ccc(-c2ccc(=O)n(-c3cccc(C(F)(F)F)c3)c2)cc1 | > 200 µM |
| CNC(=O)Nc1cccc(-n2cc(-c3ccc(F)cc3)c(C)cc2=O)c1 | in the range around 125 µM |
| Cc1cc(C)c(=O)n(-c2ccccc2)c1 | > 200 µM |
| Cn1cc(-c2cn(-c3ccc(OC(F)(F)F)cc3)c(=O)c3c2OCC(=O)N3)cn1 | > 200 µM |
| Cn1cc(-c2cn(-c3ccc(OC(F)(F)F)cc3)c(=O)cc2C#N)cn1 | < 50 µM |
| CC(C)Oc1ccc(-n2cc(-c3ccc(S(N)(=O)=O)cc3)ccc2=O)cc1 | > 200 µM |
| Cc1n[nH]c(C)c1-c1ccc(=O)n(-c2ccc(Cl)cc2)c1 | > 200 µM |
| Cc1ccc(=S)n(-c2ccc(OC(F)(F)F)cc2)c1 | in the range around 125 µM |
| CCOc1ccc(-n2cc(-c3ccc(F)cc3)ccc2=O)c(C)c1 | > 200 µM |
| O=c1c2nccnc2c(-c2cn[nH]c2)cn1-c1ccc(Cl)cc1 | > 200 µM |
| Cc1ccc(=O)n(-c2ccccc2)n1 | > 200 µM |
| O=c1ccc(-c2ccnnc2)cn1-c1ccc(OC(F)(F)F)cc1 | in the range around 125 µM |
| CCOc1ccc(-n2cc(-c3c(C)n[nH]c3C)ccc2=O)c(C)c1 | in the range around 125 µM |
| O=c1cc2ccccc2cn1-c1ccccc1 | in the range around 125 µM |
| CC(C)Oc1ccc(-n2cc(-c3cn[nH]c3)ccc2=O)cc1 | in the range around 125 µM |
| Cc1ccccc1-n1cc(-c2cnn(C)c2)ccc1=O | > 200 µM |
| Cc1c(-c2ccc(=O)n(-c3ccc(OC(F)(F)F)cc3)c2)cnn1C | < 50 µM |
